How the values were obtained:
Type in all cases: cell-based
[1] = system: Nrf2 transcription factor; assay: AREc32 luciferase reporter assay; conditions: Homo sapiens; AREc32 cells, 19 hours; concentration required to increase GST ARE luciferase reporter activity by 2-fold; read-out: NRF2 ARE 2-Fold (EC2×)
Text: A. AREc32 Luciferase Reporter Assay
The AREc32 luciferase reporter assay allows for quantitative assessment of the endogenous activity of the Nrt2 transcription factor in cultured mammalian cells. AREc32 cells are derived from MCF-7 human breast carcinoma cells that were stably transfected with a reporter construct that contains the firefly luciferase gene located downstream of eight copies of the rat GSTA2 antioxidant response element (ARE) sequence (Wang et al., 2006; Concept Life Sciences Integrated Discovery and Development Services Ltd (CLSIDDS)). Active Nrf2 binds to the ARE sequences and increases expression of the firefly luciferase gene. To assess the Nrf2-activating potential of the test compounds, AREc32 cells were plated in black […] plates at a density of 20,000 cells per well in triplicate in DMEM+10% FBS+0.8 mg/mL Geneticin and incubated at 37° C. with 5% CO2 in a humidified atmosphere. The next day, cells were treated with DMSO (vehicle) or test compound (concentration ranges of 0.4-200 nM or 3.9-2000 nM) for 19 hours. Luciferase activity was determined using the ONE-Glo Luciferase assay (Promega). The luminescence signal was measured on a BMG Pherastar microplate reader. The mean luminescence value from test compound-treated wells was normalized to that from DMSO-treated wells and was represented as fold-induction. Data were analyzed using GraphPad Prism version 6.00 for Windows, GraphPad Software, La Jolla Calif. USA. A non-linear regression curve with log (agonist) vs. response using a variable slope was used to fit the data. Where applicable, a maximum threshold value of 50-fold over DMSO was set. EC2× values were interpolated from the curve. EC2× corresponds to the concentration of test compound required to increase GST ARE Luciferase reporter activity by 2-fold.

[2] = target: T1, Human RAR-related Orphan Receptor Gamma (RORγ) (Homo sapiens, UniProt P51449); assay: RORγ assay (GAL4-RORγ hybrid luciferase reporter, Indigo Biosciences); conditions: inverse-agonist activity, GAL4-RORγ reporter cells, 23 hours
T1 sequence (P51449 269-508 limits assumed): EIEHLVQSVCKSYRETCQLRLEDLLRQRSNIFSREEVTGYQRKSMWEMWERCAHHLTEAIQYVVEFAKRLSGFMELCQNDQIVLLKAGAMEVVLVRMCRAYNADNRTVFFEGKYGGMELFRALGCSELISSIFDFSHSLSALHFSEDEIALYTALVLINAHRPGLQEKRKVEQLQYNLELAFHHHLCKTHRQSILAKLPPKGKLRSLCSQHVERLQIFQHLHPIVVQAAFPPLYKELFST
Text: B. RORγ Assay and Cell Viability
The RORγ assay system was purchased from Indigo Biosciences. This nuclear receptor assay utilizes a human cell line that has been engineered to express a hybrid form of the Human RAR-related Orphan Receptor Gamma (RORγ) at high levels. The N-terminal DNA binding domain (DBD) of the native RORγ receptor was substituted with the yeast GAL4-DBD to generate the GAL4-RORγ hybrid nuclear receptor. The reporter cell line is transfected with a plasmid that encodes the beetle luciferase gene under the control of the GAL4 upstream activating sequence (UAS). GAL4 binds to the UAS and increases transcription of downstream target genes. The GAL4-RORγ hybrid is constitutively active; therefore, the principle application of this reporter assay system is to screen test compounds to quantify inverse-agonist activities against human RORγ. Because the ligand binding domain (LBD) of RORγ is identical to the LBD of RORγt, this assay is an accurate surrogate for evaluating activity of experimental ligands against RORγt. To assess the RORγ inverse-agonist activity of the test compounds, reporter cells were plated in white 96-well plates in triplicate and were treated with DMSO (vehicle) or test compound (concentration ranges of 7.8-2000 nM) at 37° C. with 5% CO2 in a humidified atmosphere for 23 hours. After this incubation, luciferin was added to the wells and luciferase activity was determined by measuring the luminescence signal using a BMG Pherastar microplate reader. Viability was determined using the Live Cell Multiplex Assay (Indigo Biosciences). Values from test compound samples were normalized to those from DMSO-treated samples. Data were analyzed using GraphPad Prism version 6.00 for Windows (GraphPad Software, La Jolla Calif. USA). A non-linear regression analysis with log (inhibitor) vs. normalized response using a variable slope was applied to fit the data and determine the IC50 values for inhibition of RORγ and cell viability. Inhibition that is closely correlated with reduced viability is considered to be non-specific.

IL-17A = assay: IL-17 release from differentiated primary human T-cells (IL-17A HTRF assay); conditions: primary human CD4+ T cells differentiated into Th17 cells, 45-hour incubation, IL-17A in supernatant; read-out: hIL17 IC50
Experimental: C. IL-17 Release from Differentiated Primary Human T-Cells and Cell Viability
Primary human cryopreserved CD4+ T Cells (Lonza) were thawed according to the manufacturer's recommendations and plated either in Lymphocyte Growth Medium-3 (LGM-3) or X-VIVO 20 media (Lonza) in 96-well tissue culture plates at a density of ˜2×10^5 cells per well, and allowed to recover for approximately 4 hours at 37° C. with 5% CO2 in a humidified atmosphere. After the recovery step, DMSO (vehicle) or test compound at doses ranging from 2 to 500 nM or 4 to 1000 nM in a three-fold dilution series was added to the cells. Three replicate wells were tested for each treatment condition. Final DMSO concentration in each well was 0.1%. Immediately after treatment, CD4+ T cells were activated by adding Dynabeads Human T-Activator CD3/CD28 (Life Technologies; bead-to-cell ratio of 1:2.5) and differentiated into Th17 cells by adding a mixture of the following cytokines: transforming growth factor-β (TGF-β, 5 ng/mL), IL-6 (20 ng/mL), IL-23 (20 ng/mL), and IL-1β (10 ng/mL). Undifferentiated control cells received only cytokine IL-2 (50 ng/mL). All human recombinant cytokines were purchased from R&D Systems. Following a 45-hour incubation at 37° C. with 5% CO2 in a humidified atmosphere, the plates were centrifuged for 3 minutes at 250×g, and half of the supernatant was transferred to anew plate to be used in the IL-17A assay (see below). Cell viability was assessed in the original plate using the CyQuant Direct Assay (Life Technologies). CyQuant reagent (an amount equal to 10% of remaining media volume) was added to the wells, and the plates were then incubated at 37° C. for 75 min. Fluorescence was read on a SpectraMax M2e spectrophotometer at 480 nm (excitation) and 535 nm (emission) wavelengths. CyQuant values from test compound samples were normalized to those from DMSO-treated samples. The concentration of IL-17A in the supernatant was measured using the Homogeneous Time-Resolved Fluorescence (HTRF) assay (Cisbio Bioassays) according to the manufacturer's protocol. The assay was performed at room temperature in low volume, solid white 384-well plates (Greiner Bio-One). Samples and standards (serially-diluted human recombinant IL-17A (0 to 5,000 pg/mL concentration range; Cisbio Bioassays) were incubated with the anti-human IL-17A antibody conjugates (the HTRF donor and acceptor pair) for 16 hours and fluorescence was measured using a Pherastar FS microplate reader (BMG Labtech) in the HTRF mode (excitation at 337 nm and emission at 665 nm and 620 nm). IL-17A levels were assessed in duplicate aliquots of supernatant from each well resulting in a total of six readings per test condition. The 665 nm/620 nm signal ratio was calculated and the concentration of IL-17A in each sample was determined by interpolation from the standard curve. The amount of IL-17A from test compound treated samples were normalized to that of the vehicle-treated samples, set to 100%. Data were analyzed using GraphPad Prism (GraphPad Software, La Jolla California USA). Concentrations of test compound were transformed by taking the logarithm of each concentration used. The IC50 values for compound-mediated reduction in IL-17A levels and cell viability were determined by non-linear regression analysis using the log(inhibitor) vs. normalized response with variable slope equation. Inhibition that is closely correlated with reduced viability is considered to be non-specific.

## C[C@H]1C(=O)C(C#N)=C[C@@]2(C)c3nn(C4CCOCC4)c(-c4ccccc4)c3CC[C@H]12 [T28]
[1]
  EC (2-fold): 0.719 µM
[2]
  IC50: 90 nM
IL-17A
  IC50: 136 nM

## C[C@H]1C(=O)C(C#N)=C[C@@]2(C)c3nn(-c4ccc(-c5ccccc5)cc4)c(-c4ccccc4)c3CC[C@H]12 [T22]
[1]
  EC (2-fold): 1.05 µM
[2]
  IC50: 175 nM
IL-17A
  IC50: 56 nM

## Cc1cc(-c2ccc(-n3nc(-c4ccncn4)c4c3[C@]3(C)C=C(C#N)C(=O)[C@H](C)[C@H]3CC4)cc2)cnn1 [T176]
[1]
  EC (2-fold): 0.979 µM
[2]
  IC50: 120 nM
IL-17A
  IC50: 129 nM

## CC(C)c1ccc(-c2nc3c([nH]2)CC[C@@H]2[C@@H](C)C(=O)C(C#N)=C[C@@]32C)cc1 [T173]
[1]
  EC (2-fold): 0.884 µM
[2]
  IC50: 1970 nM
IL-17A
  IC50: 119 nM

## CC(C)c1ccc(-c2nc3c(n2C(C)C)CC[C@@H]2[C@@H](C)C(=O)C(C#N)=C[C@@]32C)cc1 [T162]
[1]
  EC (2-fold): 1.12 µM
[2]
  IC50: 141 nM
IL-17A
  IC50: 137 nM

## C[C@H]1C(=O)C(C#N)=C[C@@]2(C)c3c(c(-c4cccnc4)nn3-c3ccc(-c4ccnc(CF)c4)cc3)CC[C@H]12 [T180]
[1]
  EC (2-fold): 0.308 µM
[2]
  IC50: 55 nM
IL-17A
  IC50: 49 nM

## C[C@H]1C(=O)C(C#N)=C[C@@]2(C)c3c(c(-c4ccccc4)nn3-c3ccccc3F)CC[C@H]12 [T9]
[1]
  EC (2-fold): 0.122 µM
[2]
  IC50: 63 nM
IL-17A
  IC50: 127 nM

## C[C@H]1C(=O)C(C#N)=C[C@@]2(C)c3c(c(-c4ccccc4)nn3-c3ccc(C(F)(F)F)cc3)CC[C@H]12 [T6]
[1]
  EC (2-fold): 0.242 µM
[2]
  IC50: 91 nM
IL-17A
  IC50: 35 nM

## C[C@H]1C(=O)C(C#N)=C[C@@]2(C)c3nc(-c4cccc(-c5ccnn5C)c4)n(-c4cccc(F)c4)c3CC[C@H]12 [T151]
[1]
  EC (2-fold): 0.749 µM
[2]
  IC50: 234 nM
IL-17A
  IC50: 154 nM

## C[C@H]1C(=O)C(C#N)=C[C@@]2(C)c3nc(-c4ccnc(C5CC5)c4)n(-c4cccc(F)c4)c3CC[C@H]12 [T144]
[1]
  EC (2-fold): 1.12 µM
[2]
  IC50: 173 nM
IL-17A
  IC50: 207 nM

## Cc1cc(-c2ccc(-n3nc(-c4cccnc4)c4c3[C@]3(C)C=C(C#N)C(=O)[C@H](C)[C@H]3CC4)cc2)cnn1 [T102]
[1]
  EC (2-fold): 0.918 µM
[2]
  IC50: 90 nM
IL-17A
  IC50: 56 nM

## Cc1ccccc1-n1nc2c(c1-c1ccccc1)CC[C@@H]1[C@@H](C)C(=O)C(C#N)=C[C@@]21C [T18]
[1]
  EC (2-fold): 0.741 µM
[2]
  IC50: 114 nM
IL-17A
  IC50: 182 nM

## C[C@H]1C(=O)C(C#N)=C[C@@]2(C)c3nc(-c4ccnc5ccccc45)n(-c4cccc(F)c4)c3CC[C@H]12 [T135]
[1]
  EC (2-fold): 0.896 µM
[2]
  IC50: 141 nM
IL-17A
  IC50: 160 nM

## CC(C)c1ccc(-c2nc3c(n2Cc2ccccc2)CC[C@@H]2[C@@H](C)C(=O)C(C#N)=C[C@@]32C)cc1 [T166]
[1]
  EC (2-fold): 1.68 µM
[2]
  IC50: 228 nM
IL-17A
  IC50: 63 nM

## C[C@H]1C(=O)C(C#N)=C[C@@]2(C)c3c(c(-c4ccccc4)nn3-c3ccc(C(=O)O)cc3)CC[C@H]12 [T52]
[1]
  EC (2-fold): > 2 µM
[2]
  IC50: > 2000 nM

## C[C@H]1C(=O)C(C#N)=C[C@@]2(C)c3c(c(-c4ccccc4)nn3C3CCS(=O)(=O)C3)CC[C@H]12 (some centres unmarked) [T29]
[1]
  EC (2-fold): 0.837 µM
[2]
  IC50: 470 nM

## C[C@H]1C(=O)C(C#N)=C[C@@]2(C)c3c(c(-c4ccncn4)nn3-c3ccc(C4CC4)cn3)CC[C@H]12 [T62]
[1]
  EC (2-fold): 0.691 µM
[2]
  IC50: 284 nM

## C[C@H]1C(=O)C(C#N)=C[C@@]2(C)c3nc(-c4ccccc4)n(-c4nnn(C)n4)c3CC[C@H]12 [T111]
[1]
  EC (2-fold): 0.59 µM
[2]
  IC50: 768 nM

## C[C@H]1C(=O)C(C#N)=C[C@@]2(C)c3c(c(-c4ccccc4)nn3-c3cccc(Br)c3)CC[C@H]12 [T33]
[1]
  EC (2-fold): 0.29 µM
[2]
  IC50: 89 nM

## C[C@H]1C(=O)C(C#N)=C[C@@]2(C)c3nn(C4CCS(=O)(=O)C4)c(-c4ccccc4)c3CC[C@H]12 (some centres unmarked) [T30]
[1]
  EC (2-fold): 0.462 µM
[2]
  IC50: 143 nM

## C[C@H]1C(=O)C(C#N)=C[C@@]2(C)c3nc(-c4ccncc4)n(-c4ccccc4)c3CC[C@H]12 [T112]
[1]
  EC (2-fold): 0.563 µM
[2]
  IC50: 264 nM

Source: patent US11993574B2, “Pyrazole and imidazole compounds for inhibition of IL-17 and RORgamma” (REATA PHARMACEUTICALS, INC., priority 2018, dated 2024)
